Key:
Assay type in all cases: in vivo
[1] = tested on: Eleusine indica; assay: Weeding effect in post-emergence stage; conditions: Dose 15 g/ha; for Weeding effect in post-emergence stage, Eleusine indica: level of fresh weight growth control rate
Procedure, shortened: (§1)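 Doses of 500, 250, 125, 60, 30, 15 and 7.5 g/ha, with methyl oleate synergist (1.5 liter/ha) and Tween 80 from acetone solution, applied by spray tower post-emergence (2–3 leaf stage). Weed control scored after 3 further greenhouse weeks, averaged over triplicates.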

[2] = tested on: Alopecurus japonicus; assay: Weeding effect in post-emergence stage; conditions: Dose 15 g/ha; for Weeding effect in post-emergence stage, Alopecurus japonicus: level of fresh weight growth control rate
Procedure, shortened: as §1

[3] = tested on: Digitaria sanguinalis; assay: Weeding effect in post-emergence stage; conditions: Dose 15 g/ha; for Weeding effect in post-emergence stage, Digitaria sanguinalis: level of fresh weight growth control rate
Procedure, shortened: as §1

[4] = tested on: Abutilon theophrasti; assay: Weeding effect in post-emergence stage; conditions: Dose 15 g/ha; for Weeding effect in post-emergence stage, Abutilon theophrasti: level of fresh weight growth control rate
Procedure, shortened: as §1

[5] = tested on: Setaria viridis; assay: Weeding effect in post-emergence stage; conditions: Dose 15 g/ha; for Weeding effect in post-emergence stage, Setaria viridis: level of fresh weight growth control rate
Procedure, shortened: as §1

[6] = tested on: Echinochloa crusgalli; assay: Weeding effect in post-emergence stage; conditions: Dose 15 g/ha; for Weeding effect in post-emergence stage, Echinochloa crusgalli: level of fresh weight growth control rate
Procedure, shortened: as §1

[7] = tested on: Descurainia sophia; assay: Weeding effect in pre-emergence stage; conditions: 30 g/ha, 4 weeks
Description: (§2) The activity level criteria for plant damage (i.e., growth control rate) are as follows:
(§3) The aforementioned seeds of monocotyledonous and dicotyledonous weeds and main crops were put into a plastic pot loaded with soil and covered with 0.5-2 cm soil. The test compounds of the present invention was dissolved with acetone, then added with tween 80, diluted by a certain amount of water to reach a certain concentration, and sprayed immediately after sowing. The obtained seeds were incubated for 4 weeks in the greenhouse after spraying and the test results were observed. It was observed that the herbicide mostly had excellent effect at the application rate of 500, 250, 125, 60, 30, 15, 7.5 g/ha, especially to weeds such as Echinochloa crusgalli. Digitaria sanguinalis and Abutilon theophrasti, etc. And many compounds had good selectivity for corn, cotton, wheat, rice, soybean, and peanut etc. In addition, evaluate the weed control effect with the above activity standard level.

[8] = tested on: Capsella bursa-pastoris; assay: Weeding effect in pre-emergence stage; conditions: 30 g/ha, 4 weeks
Description: as §2, §3

[9] = tested on: Abutilon theophrasti; assay: Weeding effect in pre-emergence stage; conditions: 30 g/ha, 4 weeks
Description: as §2, §3

[10] = tested on: Veronica didyma Tenore; assay: Weeding effect in pre-emergence stage; conditions: 30 g/ha, 4 weeks
Description: as §2, §3

[11] = tested on: Setaria viridis; assay: Weeding effect in pre-emergence stage; conditions: 30 g/ha, 4 weeks
Description: as §2, §3

[12] = tested on: Amaranthus retroflexus; assay: Weeding effect in pre-emergence stage; conditions: 30 g/ha, 4 weeks
Description: as §2, §3

[13] = tested on: Soybeans; assay: Pre-emergence stage, crop selectivity; conditions: 30 g/ha, 4 weeks
Description: as §2, §3

[14] = tested on: cotton; assay: Pre-emergence stage, crop selectivity; conditions: 30 g/ha, 4 weeks
Description: as §2, §3

[15] = tested on: corn; assay: Pre-emergence stage, crop selectivity; conditions: 30 g/ha, 4 weeks
Description: as §2, §3

[16] = tested on: Peanut; assay: Pre-emergence stage, crop selectivity; conditions: 30 g/ha, 4 weeks
Description: as §2, §3

[17] = fresh weight control rate level

Row | SMILES | activity level (growth control rate) Descurainia sophia [7] | activity level (growth control rate) Capsella bursa-pastoris [8] | activity level (growth control rate) Abutilon theophrasti [9] | activity level (growth control rate) Veronica didyma Tenore [10] | activity level (growth control rate) Setaria viridis [11] | activity level (growth control rate) Amaranthus retroflexus [12] | plant damage level Soybeans [13] | plant damage level Cotton [14] | plant damage level Corn [15] | plant damage level Peanut [16] | Weeding effect in post-emergence stage, Eleusine indica [1] | Weeding effect in post-emergence stage, Alopecurus japonicus [2] | Weeding effect in post-emergence stage, Digitaria sanguinalis [3] | Weeding effect in post-emergence stage, Abutilon theophrasti [4] | Weeding effect in post-emergence stage, Setaria viridis [5] | Weeding effect in post-emergence stage, Echinochloa crusgalli [6] | also measured
1 | COC(=O)[C@@H](C)O/N=C/c1cc(-n2c(=O)c(Cl)c(C(F)(F)F)n(C)c2=O)c(F)cc1Cl [431(R)] | 5 (Level 5: growth control rate is above 85%) | 5 (Level 5: growth control rate is above 85%) | 5 (Level 5: growth control rate is above 85%) | 5 (Level 5: growth control rate is above 85%) | 5 (Level 5: growth control rate is above 85%) | 5 (Level 5: growth control rate is above 85%) | 0 (Level 0: growth control rate is less than 5%) | 0 (Level 0: growth control rate is less than 5%) | 0 (Level 0: growth control rate is less than 5%) | 0 (Level 0: growth control rate is less than 5%) |  |  |  |  |  |  | Weeding effect in post-emergence stage, Eleusine indica (level) [1, 17]: 5 (Level 5: growth control rate is above 85%); Weeding effect in post-emergence stage, Alopecurus japonicus (level) [2, 17]: 5 (Level 5: growth control rate is above 85%); Weeding effect in post-emergence stage, Digitaria sanguinalis (level) [3, 17]: 5 (Level 5: growth control rate is above 85%); Weeding effect in post-emergence stage, Abutilon theophrasti (level) [4, 17]: 5 (Level 5: growth control rate is above 85%); Weeding effect in post-emergence stage, Setaria viridis (level) [5, 17]: 5 (Level 5: growth control rate is above 85%); Weeding effect in post-emergence stage, Echinochloa crusgalli (level) [6, 17]: 5 (Level 5: growth control rate is above 85%)
2 | C[C@@H](O/N=C/c1cc(-n2c(=O)cc(C(F)(F)F)n(C)c2=O)c(F)cc1Cl)C(=O)OCc1ccccn1 [301(R)] | 5 (Level 5: growth control rate is above 85%) | 5 (Level 5: growth control rate is above 85%) | 5 (Level 5: growth control rate is above 85%) | 5 (Level 5: growth control rate is above 85%) | 5 (Level 5: growth control rate is above 85%) | 5 (Level 5: growth control rate is above 85%) | 0 (Level 0: growth control rate is less than 5%) | 0 (Level 0: growth control rate is less than 5%) | 0 (Level 0: growth control rate is less than 5%) | 0 (Level 0: growth control rate is less than 5%) | 5 (Level 5: growth control rate is above 85%) | 5 (Level 5: growth control rate is above 85%) | 5 (Level 5: growth control rate is above 85%) | 5 (Level 5: growth control rate is above 85%) | 5 (Level 5: growth control rate is above 85%) | 5 (Level 5: growth control rate is above 85%) | 
3 | CC(C)=NOC(=O)[C@@H](C)O/N=C/c1cc(-n2c(=O)cc(C(F)(F)F)n(C)c2=O)c(F)cc1Cl [248(R)] | 5 (Level 5: growth control rate is above 85%) | 5 (Level 5: growth control rate is above 85%) | 5 (Level 5: growth control rate is above 85%) | 5 (Level 5: growth control rate is above 85%) | 5 (Level 5: growth control rate is above 85%) | 5 (Level 5: growth control rate is above 85%) | 0 (Level 0: growth control rate is less than 5%) | 0 (Level 0: growth control rate is less than 5%) | 0 (Level 0: growth control rate is less than 5%) | 0 (Level 0: growth control rate is less than 5%) | 5 (Level 5: growth control rate is above 85%) | 5 (Level 5: growth control rate is above 85%) | 5 (Level 5: growth control rate is above 85%) | 5 (Level 5: growth control rate is above 85%) | 5 (Level 5: growth control rate is above 85%) | 5 (Level 5: growth control rate is above 85%) | 
4 | CC[C@@H](O/N=C/c1cc(-n2c(=O)cc(C(F)(F)F)n(C)c2=O)c(F)cc1Cl)C(=O)OC [315(R)] | 5 (Level 5: growth control rate is above 85%) | 5 (Level 5: growth control rate is above 85%) | 5 (Level 5: growth control rate is above 85%) | 5 (Level 5: growth control rate is above 85%) | 5 (Level 5: growth control rate is above 85%) | 5 (Level 5: growth control rate is above 85%) | 0 (Level 0: growth control rate is less than 5%) | 0 (Level 0: growth control rate is less than 5%) | 0 (Level 0: growth control rate is less than 5%) | 0 (Level 0: growth control rate is less than 5%) | 5 (Level 5: growth control rate is above 85%) | 5 (Level 5: growth control rate is above 85%) | 5 (Level 5: growth control rate is above 85%) | 5 (Level 5: growth control rate is above 85%) | 5 (Level 5: growth control rate is above 85%) | 5 (Level 5: growth control rate is above 85%) | 
5 | CC/C(C)=N/OC(=O)[C@@H](C)O/N=C/c1cc(-n2c(=O)cc(C(F)(F)F)n(C)c2=O)c(F)cc1Cl [249(R)] | 5 (Level 5: growth control rate is above 85%) | 5 (Level 5: growth control rate is above 85%) | 5 (Level 5: growth control rate is above 85%) | 5 (Level 5: growth control rate is above 85%) | 5 (Level 5: growth control rate is above 85%) | 5 (Level 5: growth control rate is above 85%) | 0 (Level 0: growth control rate is less than 5%) | 0 (Level 0: growth control rate is less than 5%) | 0 (Level 0: growth control rate is less than 5%) | 0 (Level 0: growth control rate is less than 5%) | 5 (Level 5: growth control rate is above 85%) | 5 (Level 5: growth control rate is above 85%) | 5 (Level 5: growth control rate is above 85%) | 5 (Level 5: growth control rate is above 85%) | 5 (Level 5: growth control rate is above 85%) | 5 (Level 5: growth control rate is above 85%) | 
